≈ marks a conversion by molar mass, not a printed value. Structures can show the parent of a compound that is named as a salt. Where two headings read alike, the source gives them in different places.
Columns and labels:
[1] = test system: Branhamella catarrhalis; experiment: in vitro antibacterial (ABMF) microdilution susceptibility test; format: cell-based; settings: Moraxella catarrhalis; Mueller-Hinton broth, 37° C., 16-24 hours; read-out: ABMF Test M.I.C. B. cata.
Source text: (§1) (d) Still another test protocol is the in vitro antibacterial (ABMF) test which is a recognized standard microdilution susceptibility procedure in Mueller-Hinton broth against gram-positive and gram-negative bacterial test organisms. The procedure is a modification of a state-of-the-art procedure reported in Manual of Clinical Microbiology, Lennette, E. H., ed., by Barry, A. L. and C. Thornsberry at pages 463-474 and by Gavan, T. L. and A. L. Barry at pages 459-462, American Society for Microbiology, Washington, 1980.
(§2) In the test, a given bacterial culture is used to inoculate individaul test wells of microdilution trays containing growth medium and test compound, the latter in a microdilution series: 1000, 333, 111, 37, 12, 4, 1.4, and 0.46 micrograms per milliliter. […] For convenience, values are reported for Escherichia coli, Branhamella catarrhalis, Alcaligenes viscolactis, Streptococcus pneumoniae, and Bacillus cereus

[2] = test system: Streptococcus pneumoniae; experiment: as above; format: cell-based; settings: Mueller-Hinton broth, 37° C., 16-24 hours, read-out: ABMF Test M.I.C. S. pneu.
Source text: as §1, §2

[3] = test system: Escherichia coli; experiment: as above; format: cell-based; settings: Mueller-Hinton broth, 37° C., 16-24 hours, read-out: ABMF Test M.I.C. E. coli
Source text: as §1, §2

[4] = test system: Bacillus cereus; experiment: as above; format: cell-based; settings: Mueller-Hinton broth, 37° C., 16-24 hours, read-out: ABMF Test M.I.C. B. cere.
Source text: as §1, §2

[5] = test system: Alcaligenes viscolactis; experiment: as above; format: cell-based; settings: Mueller-Hinton broth, 37° C., 16-24 hours, read-out: ABMF Test M.I.C. A. visc.
Source text: as §1, §2

[6] = test system: L1210 cells; experiment: PDC test, L1210 cell growth; format: cell-based, murine; settings: Mus musculus, read-out: PDC ID50
Method: (c) Another test protocol is the PDC test. L1210 cells, a murine leukemia cell line, were grown in RPMI 1640 supplemented with 10% fetal bovine serum and genamicin (50 μg/ml). Drug dilutions were prepared in the appropriate solvent and 20 μl of each dilution were added to 24-well Linbro tissue culture plates followed by the addition of 2.0 ml of cell suspension containing 3×10^4 cells per ml. Solvent and medium controls were included in each test. After incubation at 37° C. for three days in 5% CO2 in air, the contents of each well were removed and the cells counted in a ZBI Coulter counter. Per cent growth was calculated relative to the controls and the levels of drug activity were expressed as ID50 in terms of molarity (M).

[7] = test system: lymphocytic leukemia P388; experiment: in vivo lymphocytic leukemia P388 test; parameters: species or system CD2 F1 mice; settings: Mus musculus, P388, ip, 120 h, intraperitoneally once daily for five days, read-out: P388 in vivo T/C × 100
Method: Another test protocol is the in vivo lymphocytic leukemia P388 test. The animals used are either male or female CD2 F1 mice, six or seven animals per test group. The tumor transplant is by intraperitoneal injection of dilute ascitic fluid containing cells of lymphocytic leukemia P388. The test compounds are administered intraperitoneally once daily for five consecutive days at various doses following tumor inoculation. The animals are weighed and survivors are recorded on a regular basis for 30 days. A compound is designated "toxic" if, at a given dose, all animals died prior to four days after the first injection of drug. A ratio of survival time for treated (T)/control (C) animals is calculated. A criterion for efficacy is a ratio T/C times 100 greater than or equal to 125. See Cancer Chemotherapy Reports, Part 3, 3, 1 (1972) for a comprehensive discussion of the protocol.

[8] = test system: HCT-8 cells; experiment: in vitro proliferating human colon adenocarcinoma (HCA) cell screen, HCT-8; format: cell-based; settings: HCT-8 cells, 60 to 65 hours, ED50, read-out: HCA ED50 Avg.
Method: (a) One test protocol is the in vitro proliferating human colon adenocarcinoma (HCA) cell screen. In this test, HCT-8 cells (HCA cell line received from Yale University) are trypsinized using trypsin-EDTA. A single cell suspension is achieved by passing the cells through a 26 gauge needle with a 20-cc syringe. A cell suspension is prepared using RPMI 1640+10% FCS+50 μg/ml gentamicin sulfate with a cell concentration is approximately 30,000 cells/ml. The cell suspension is dispensed in Linbro 24-well plates; 1 ml/well. The plates are incubated for approximately 48 hours at 37° C. in a 5% CO2 atmosphere. At this time test compounds are added in the appropriate concentration. Five μl of the 200 μg/ml stock solution is added to each well in a primary test. […] of the appropriate dilution is added to each well for a titration test. The plates are reincubated an additional 60 to 65 hours at 37° C. in a 5% CO 2 atmosphere. The cells are lysed using a mix of cationic surfactant, glacial acetic acid, and sodium chloride. Two ml of the lysed cell suspension from each well is added to 8 ml of diluent. The number of nuclei is determined using a Coulter counter (ZBI model), and a percent growth for each drug concentration is calculated. From this, and ID50 (molar concentration of compound that results in 50% inhibition of growth) is determined.

Row | MIC [1] [µg/mL] | MIC [2] [µg/mL] | MIC [3] [µg/mL] | MIC [4] [µg/mL] | MIC [5] [µg/mL] | IC50 ([6]; 72 h, L1210 cells, three days) [nM] | SMILES | response vs control in vivo at 3.12 mg/kg [7] [%] | response vs control in vivo at 6.25 mg/kg [7] [%] | IC50 [8] [nM] | response vs control in vivo at 100 mg/kg ([7]; 100 mg/kg) [%] | response vs control in vivo at 200 mg/kg ([7]; 200 mg/kg) [%] | response vs control in vivo at 1.56 mg/kg [7] [%] | response vs control in vivo at 12.5 mg/kg [7] [%] | response vs control in vivo at 0.39 mg/kg ([7]; 0.39 mg/kg) [%] | response vs control in vivo at 0.78 mg/kg ([7]; 0.78 mg/kg) [%] | IC50 ([6]; L1210, 72 h) [nM]
1 | 12.3 (≈ 26.4 µM) | 12.3 (≈ 26.4 µM) | 111 (≈ 238 µM) | 37 (≈ 79.3 µM) | 4.1 (≈ 8.79 µM) | 460 | CCN(CC)CCOc1ccc2c(c1)-c1nn(CCN(CC)CC)c3ccc([N+](=O)[O-])c(c13)N2 [Example 21] | – | – | – | – | – | – | – | – | – | –
2 | – | – | – | – | – | 820 | CCN(CC)CCn1nc2c3c(c([N+](=O)[O-])ccc31)Nc1ccc(OCc3ccc(OC)cc3)cc1-2 [Example 22, N,N-Diethyl-9-[(4-methoxyphenyl)methoxy]-5-nitropyrazolo[3,4,5-kl]acridine-2(6H)-ethanamine, methanesulfonate (salt) (1:1)] | – | – | – | – | – | – | – | – | – | –
3 | < 0.46 | < 0.46 | < 0.46 | < 0.46 | < 0.46 | 70 | CCN(CC)CCn1nc2c3c(c([N+](=O)[O-])ccc31)Nc1ccc(OC)c(Cl)c1-2 [Example 25, 10-Chloro-N,N-diethyl-9-methoxy-5-nitropyrazolo[3,4,5-kl]acridine-2(6Hethanamine, methanesulfonate, hydrate] | – | – | – | – | – | – | – | – | – | –
4 | – | – | – | – | – | 7.2 | CCN(CC)CCn1nc2c3c(c([N+](=O)[O-])ccc31)Nc1ccc(OC(=O)C(C)(C)C)cc1-2 [Example 28, 2-[2-(Diethylamino)ethyl]-2,6-dihydro-5-nitropyrazolo[3,4,5-kl]acridin-9-ol, 2,2-dimethylpropanoate (ester), methanesulfonate (salt) (1:1)] | 221 | 223 | – | – | – | – | – | – | – | –
5 | 12.3 | < 0.46 | 37 | 37 | < 0.46 | 4.3 | CCCCCCCC(=O)Oc1ccc2c(c1)-c1nn(CCN(CC)CC)c3ccc([N+](=O)[O-])c(c13)N2 [Example 30, Octanoic acid,[2-[2-(diethylamino)ethyl]-2,6-dihydro-5-nitropyrazolo[3,4,5-kl]acridin-9-yl]ester, methanesulfonate (1:1), hemihydrate] | – | – | – | – | – | – | – | – | – | –
6 | – | – | – | – | – | 3 | CCN(CC)CCn1nc2c3c(c([N+](=O)[O-])ccc31)Nc1ccc(OC(=O)c3ccccc3)cc1-2 [Example 31, 2-[2-(Diethylamino)ethyl]-2,6-dihydro-5-nitropyrazolo [3,4,5-kl]acridin-9-ol, benzoate (ester), methanesulfonate (1:1) (salt), monohydrate] | – | – | – | – | – | – | – | – | – | –
7 | < 0.46 | < 0.46 | < 0.46 | < 0.46 | < 0.46 | 590 | Cc1ccc2c(c1)-c1nn(CCNCCO)c3ccc([N+](=O)[O-])c(c13)N2.Cl [Example 42, 2-[[2-(9-Methyl-5-nitropyrazolo[3,4,5-kl]acridin-2(6H)-yl)ethyl]amino]ethanol, monohydrochloride] | – | – | – | – | – | – | – | – | – | –
8 | < 0.46 | 0.46 | < 0.46 | 0.46 | < 0.46 | – | CN(C)CCCn1nc2c3c(c([N+](=O)[O-])ccc31)Nc1ccc(O)cc1-2 [Example 44, 2-[3-(Dimethylamino)propyl]-2,6-dihydro-5-nitropyrazolo[3,4,5-kl]acridin-9-ol, methanesulfonate] | 270 | – | 12 | – | – | 200 | – | 162 | 182 | –
9 | – | – | – | – | – | – | CCN(CC)CCn1nc2c3c(c([N+](=O)[O-])cc([N+](=O)[O-])c31)Nc1ccc(OCc3ccccc3)cc1-2 [Example 52, N,N-Diethyl-3,5-dinitro-9-(phenylmethoxy)pyrazolo [3,4,5-kl]-2(6H)-ethanamine, methanesulfonate, hemihydrate] | – | – | – | – | – | – | – | – | – | 750

Row | SMILES | MIC [1] [µg/mL] | MIC [2] [µg/mL] | MIC [3] [µg/mL] | MIC [4] [µg/mL] | MIC [5] [µg/mL] | IC50 ([6]; 72 h, L1210 cells, three days) [nM] | response vs control in vivo at 3.12 mg/kg [7] [%] | response vs control in vivo at 6.25 mg/kg [7] [%] | IC50 [8] [nM] | response vs control in vivo at 100 mg/kg ([7]; 100 mg/kg) [%] | response vs control in vivo at 200 mg/kg ([7]; 200 mg/kg) [%] | response vs control in vivo at 1.56 mg/kg [7] [%] | response vs control in vivo at 12.5 mg/kg [7] [%] | response vs control in vivo at 0.39 mg/kg ([7]; 0.39 mg/kg) [%] | response vs control in vivo at 0.78 mg/kg ([7]; 0.78 mg/kg) [%] | IC50 ([6]; L1210, 72 h) [nM]
10 | CCN(CC)CCn1nc2c3c(c([N+](=O)[O-])ccc31)Nc1cc(OC)cc(OC)c1-2.CS(=O)(=O)O.O [Example 24, N,N-Diethyl-8,10-dimethoxy-5-nitropyrazolo[3,4,5-kl]acridine-2(6H)-ethanamine, methanesulfonate, hydrate (1:1:1)] | < 0.46 | 1.4 | 4.1 | < 0.46 | < 0.46 | 490 | – | – | – | – | – | – | – | – | – | –
11 | COc1cc(OC)c2c(c1)-c1nn(CCN(C)C)c3ccc([N+](=O)[O-])c(c13)N2.CS(=O)(=O)O [Example 38, 7,9-Dimethoxy-N,N-dimethyl-5-nitropyrazolo[3,4,5-kl]acridine-2(6H)-ethanamine, methanesulfonate (1:1)] | 1.4 | < 0.46 | 1000 | < 0.46 | < 0.46 | – | – | – | 64 | 119 | 128 | – | – | – | – | –
12 | CCCCOc1ccc2c(c1)-c1nn(CCNCCO)c3ccc([N+](=O)[O-])c(c13)N2 [Example 41, 2-[[2-(9-Butoxy-5-nitropyrazolo[3,4,5-kl]acridin-2(6H)-yl)ethyl]amino]ethanol, methanesulfonate, hemihydrate] | 1.4 | 12.3 | 3.7 | 12.3 | < 0.46 | – | 147 | 159 | 340 | – | – | 141 | 174 | – | – | –
13 | CCOc1ccc2c(c1)-c1nn(CCCN(C)C)c3ccc([N+](=O)[O-])c(c13)N2.CS(=O)(=O)O [Example 46, 9-Ethoxy-N,N-dimethyl-5-nitropyrazolo[3,4,5-kl]acridine-2(6H)-propanamine, methanesulfonate (1:1)] | 1.4 | 4.1 | 12.3 | 4.1 | < 0.46 | – | 137 | 169 | 55 | – | – | 132 | 232 | – | – | –

From patent US4555572A, “Pyrazolo[3,4,5-kl]acridine compositions and methods for their production and use” (Warner-Lambert Company, priority 1984, dated 1985)
